Assay results from PubChem BioAssay (NCI).
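Method: 48-hour compound exposure of cells in 96-well plates, five concentrations, linear interpolation of endpoints. The concentration for full growth arrest is given as TGI.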

Tests used:
Assay in all cases: DTP human tumour cell line panel, 48 h
[1] = test system: CAKI-1 renal
[2] = test system: CCRF-CEM leukemia
[3] = test system: HCC-2998 colon
[4] = test system: HCT-116 colon
[5] = test system: MALME-3M melanoma
[6] = test system: MDA-MB-435
[7] = test system: MOLT-4 leukemia
[8] = test system: SK-MEL-28 melanoma
[9] = test system: SW-620 colon
[10] = test system: TK-10 renal

SMILES	TGI [1]	TGI [2]	TGI [3]	TGI [4]	TGI [5]	TGI [6]	TGI [7]	TGI [8]	TGI [9]	TGI [10]
O=C(/C(=C\C(=O)c1cccs1)c1ccsc1)c1ccc(Br)cc1	> 100 µM	> 100 µM	> 100 µM	> 100 µM	> 100 µM	> 100 µM	> 100 µM	> 100 µM	> 100 µM	> 100 µM
CC1OC2=N[C@@H]1C(=O)N[C@@H](C(C)C)C1=N[C@H](C(=O)N[C@@H](C(C)C)C3=N[C@H](C(=O)N[C@@H](C(C)C)C4=N[C@H](C(=O)N[C@H]2C(C)C)C(C)O4)C(C)O3)C(C)O1 (some centres undefined)	> 10 µM	> 10 µM	> 10 µM	–	> 10 µM	> 10 µM	> 10 µM	> 10 µM	> 10 µM	> 10 µM
Cc1ccc(C2=NOC(=O)[C@@H]3CCCC[C@@H]23)cc1	> 100 µM	> 100 µM	> 100 µM	> 100 µM	> 100 µM	> 100 µM	> 100 µM	> 100 µM	> 100 µM	> 100 µM
CCOC(=O)C1(C(=O)OCC)[C@H](c2ccccc2)C2=NO[C@@H]3CCC[C@H]1[C@H]23	> 100 µM	> 100 µM	60 µM	> 100 µM	> 100 µM	51.5 µM	> 100 µM	> 100 µM	> 100 µM	> 100 µM
CCOC(=O)C(=[N+]=[N-])C(=O)Nc1nn2nnnc2c2ccccc12	> 100 µM	> 100 µM	> 100 µM	> 100 µM	> 100 µM	> 100 µM	> 100 µM	> 100 µM	> 100 µM	–
C/C(=C\c1ccccn1)c1ccccn1	> 100 µM	–	> 100 µM	> 100 µM	> 100 µM	> 100 µM	> 100 µM	> 100 µM	–	> 100 µM
CC[N+]1(C)CCC(O)(/C=C/c2ccc(OC)cc2)C(C(=O)/C=C/c2ccc(OC)cc2)C1 (centres undefined)	3.93 µM	–	46.4 µM	> 48.3 µM	34.6 µM	28.2 µM	4.94 µM	31.7 µM	7.42 µM	11.6 µM
N#CC(C#N)=C1C(C#N)=C(N)NC12OCCO2	> 100 µM	> 100 µM	> 100 µM	> 100 µM	> 100 µM	> 100 µM	> 100 µM	> 100 µM	> 100 µM	> 100 µM
Clc1ccc(Cc2nc3ccccc3nc2-c2cccc(Br)c2)cc1	5.1 µM	5.04 µM	3.36 µM	3.5 µM	22.5 µM	4.71 µM	6.84 µM	–	4.49 µM	30.4 µM
COc1ccc(N(C)C(=O)N(C)c2ccc([N+](=O)[O-])cc2)cc1	> 100 µM	> 100 µM	> 100 µM	> 100 µM	> 100 µM	18.6 µM	> 100 µM	> 100 µM	> 100 µM	73.3 µM
COc1cc2c(cc1OCCCC(=O)Nc1cc(C(=O)Nc3cc(C(=O)Nc4cc(C(=O)NCCCN(C)C)n(C)n4)n(C)n3)n(C)n1)N=CC1CCCN1C2=O (centres undefined)	61.5 µM	> 100 µM	93.5 µM	> 100 µM	25.5 µM	44.9 µM	> 100 µM	30.7 µM	> 100 µM	40.7 µM
